The results in this text go back to the supplement of paper PMC10307832.

What all share (test): relative viability (nuclei count vs DMSO), 5 days (fraction); higher = more cells survive
Compound in assay [1]: C[C@]12O[C@H](C[C@]1(O)CO)n1c3ccccc3c3c4c(c5c6ccccc6n2c5c31)CNC4=O [Lestaurtinib] + C[C@@H](Oc1cc(-c2cnn(C3CCNCC3)c2)cnc1N)c1c(Cl)ccc(F)c1Cl [Crizotinib] (partner 1 µM)
The procedure, abridged:
(§1)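 A single step with final 0.05% Triton X-100, 1% formaldehyde and 1 ug/ml Hoechst fixed the cells and stained nuclei 5 days after treatment. Lung cancer cell lines in 1536-well plates had been treated by pin tool the day after seeding with one drug alone or a fixed anchor-drug dose plus five library-drug doses (not always all listed) in √10 steps, and nuclei were counted on 4× images. Relative viability is the ratio of nuclei in treated wells to nuclei in vehicle wells, taken as the median of duplicate plates.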

Compound in assay [2]: C1/C(=C\C2=CC=CS2)/C(=O)/C(=C/C3=CC=CS3)/C1 + CS(=O)(=O)CCNCc1ccc(-c2ccc3ncnc(Nc4ccc(OCc5cccc(F)c5)c(Cl)c4)c3c2)o1 [Lapatinib] (partner 2 µM)
The procedure, abridged:
as §1

Compound in assay [3]: C[C@]12O[C@H](C[C@]1(O)CO)n1c3ccccc3c3c4c(c5c6ccccc6n2c5c31)CNC4=O [Lestaurtinib] + CCNC(=O)c1noc(-c2cc(C(C)C)c(O)cc2O)c1-c1ccc(CN2CCOCC2)cc1 [Luminespib] (partner 0.01 µM)
The gist of the method:
as §1

Compound in the assay “TPCA-1 + Vorinostat”: C1=CC(=CC=C1C2=CC(=C(S2)NC(=O)N)C(=O)N)F [TPCA-1] + O=C(CCCCCCC(=O)Nc1ccccc1)NO [Vorinostat] (partner 1 µM)
The gist of the method:
as §1

As to UMC-11, the relative viability was determined as 0.5 in assay [1] (first compound 0.005 µM); 0.6 in assay [1] (first compound 0.01581 µM); 0.416 in assay [1] (first compound 0.05 µM); 0.248 in assay [1] (first compound 0.1581 µM); 0.107 in assay [1] (first compound 0.5 µM); 0.88 in assay [2] (first compound 0.2 µM). The relative viability in assay [2] (first compound 0.6325 µM) was found to be 0.98; in assay [2] (first compound 2 µM), 1.19; in assay [2] (first compound 6.325 µM) it was 0.628; in assay [2] (first compound 20 µM), 1.1; in assay [3] (first compound 0.005 µM), 0.936; in assay [3] (first compound 0.01581 µM), 0.992. Besides, the relative viability came to 0.675 in assay [3] (first compound 0.05 µM); 0.286 in assay [3] (first compound 0.1581 µM); 0.164 in assay [3] (first compound 0.5 µM); 0.447 in the assay with TPCA-1 + Vorinostat (first compound 0.04 µM); 0.358 with TPCA-1 + Vorinostat (first compound 0.1265 µM); 0.368 with TPCA-1 + Vorinostat (first compound 0.4 µM). The relative viability turned out to be 0.378 with TPCA-1 + Vorinostat (first compound 1.265 µM) and 0.214 with TPCA-1 + Vorinostat (first compound 4 µM).
